From US20260216134A1, “CHARGED PI-CONJUGATED MOLECULES FOR THE TREATMENT OF MICROBIAL INFECTIONS” (priority 2023, published 2026)
Entries after “also recorded” stand apart in the source; their conditions may differ.

Legend:
[1] = test system: S. aureus ATCC 25923; assay: Single-step isolation of spontaneous resistant mutants; type: cell-based, Staphylococcus aureus
Source text: FIGS. 10A-10C show the development of resistance and mutation rate of bacterial strains subjected to repeated exposure to charged pi-conjugated compounds. (FIG. 10A) Stepwise development of resistance in B. cereus CECT131123, E. faecalis ATCC 29212, S. aureus ATCC 25923, and S. pneumoniae ATCC 49619. Bacterial strains were repeatedly exposed to charged pi-conjugated compounds or the conventional antibiotics ciprofloxacin (CIP), linezolid (LNZ) and vancomycin (VAN) for over 30 cycles. The y-axis indicates the MIC fold change, reflecting increased resistance over repeated treatment. (FIG. 10B) Mutation rate, represented as the frequency of rifampin-resistant cells, in S. aureus ATCC 25923 subjected to repeated cycles of treatment with charged pi-conjugated compounds or the conventional antibiotic ciprofloxacin (CIP). (FIG. 10C) Single-step resistance assessment of spontaneous mutants. […]
To estimate the occurrence of spontaneous charged pi-conjugated compound-resistant mutants, S. aureus cells cultured overnight were resuspended in PBS to yield 10^10 cells mL^−1 and then plated on both selective (charged pi-conjugated compound-containing) and non-selective LB agar plates. After incubation at 37° C. for 24-48 hours, colonies were counted, and the frequency of charged pi-conjugated compound-resistant mutants was calculated. […]

[2] = test system: Gram-positive strains; assay: MIC / MIC50 by broth microdilution in panel of Gram-positive strains; type: cell-based; details: MIC50 over all Gram-positive strains tested (Table 2)
Method: Antibacterial activity was assessed by determining the minimal inhibitory concentration (MIC) and the minimal bactericidal concentrations (MBC) and by monitoring time-dependent bacterial killing of exponentially growing cells. Bacterial cell suspensions (OD600≈0.02 in cation-adjusted Muller-Hinton Broth) were treated with increasing concentrations of the different molecules. The minimal inhibitory concentration (MIC) was defined as the minimal concentration of the molecule resulting in complete bacterial growth arrest. The minimal bactericidal concentration (MBC) was defined as the lowest concentration of the molecule that killed 99.9% of the inoculum. A molecule was determined to be bactericidal if the ratio of the MBC to the MIC was less than 4 to 6. […] In M. smegmatis, the antibacterial activity of charged pi-conjugated compounds was generally lower.
The MIC values for all Gram-positive strains tested (Table 2) were used to calculate the MIC50, i.e., the minimum inhibitory concentration needed to inhibit the growth of 50% of the tested isolates (FIG. 5A). […] When the average MIC50 values were evaluated, the most susceptible bacterial genera were Streptococcus sp., followed by Staphylococcus sp. In contrast, Propionibacterium sp. had the highest average MIC50 (FIG. 5B).
The broth microdilution method was used to determine the MIC of charged pi-conjugated compounds according to the CLSI guidelines. Charged pi-conjugated compound stock solutions (16 mM) were prepared in dimethyl sulfoxide (DMSO). Serial twofold dilutions of the charged pi-conjugated compounds were freshly prepared using the appropriate liquid media (Table 2), and 100 μL of each dilution was added to the appropriate wells of 96-well microtiter plates. The bacterial inoculum was further diluted in liquid media, and 100 μL was added to each well, resulting in a final cell density of ≈5×10^5 CFU mL^−1. […] A molecule was determined to be bactericidal if the ratio of the MBC to the MIC was less than 4 to 6. […]

[3] = test system: A375 tumors; assay: Intratumoral injection into A375 tumors in mice; type: in vivo
Method: Cy7.5-amine was intratumorally injected at the dose of 8 μg (equivalent to 50 μL of 200 μM Cy7.5-amine solution in PBS containing 2.5% DMSO. As control 50 μL of 2.5% DMSO in PBS solution was injected intratumorally. The blue dots indicate the days when the tumors were treated.
Then we applied Cy7.5-amine (FIG. 22C) by intratumoral injection into A375 tumors as described in FIG. 33.

C[N+]1=C(/C=C/C2=CC(=C/C=C3/N(CCCCCC(=O)NCCCCCCN)c4ccc5ccccc5c4C3(C)C)/CCC2)C(C)(C)c2c1ccc1ccccc21.Cl.[Cl-] [Cy7.5-amine, Cyanine 7.5-amine]
MIC of spontaneous resistant mutants ([1]; mutants propagated on fresh plates, compared with WT strain): MIC indistinguishable from that of the WT | spontaneous mutation rate ([1]; plates containing 4×, 8×, 16×MIC, resistant CFU / total CFU): ≤ 10^−6 | antibacterial activity according to MIC50 [2]: strongest antibacterial activity | mice free of cancer ([3]; after 7 months of the study): 2 out of 10 | loss of A375 tumors ([3]; intratumoral 8 μg (50 μL of 200 μM), n=10 mice): 20% | toxicity to the mice (body weight relative to control) ([3]; intratumoral 200 μM, control 2.5% DMSO): no sign of toxicity; also recorded: does not cause change of the mice body weight
